Experimental data as given in patent publication US20160194299A1 (priority 2013, published 2016).
≈ marks a conversion by molar mass, not a printed value. Read-outs that look alike come from different tables or passages of the source.

Experiments:
in vitro = details: African green monkey
Mtb [1] = test: microbe, parasite or virus in culture; format: cell-based, Mycobacterium tuberculosis; details: Mycobacterium tuberculosis, read-out: MIC (III)
Mtb [2] = test: microbe, parasite or virus in culture; format: cell-based, Mycobacterium tuberculosis; details: Mycobacterium tuberculosis, read-out: MIC (I)

Structure (SMILES) | CC50 (in vitro) [µg/mL] | MIC (Mtb [1]) [µg/mL] | MIC (Mtb [2]) [µg/mL]
CCOC(=O)NC(=O)c1cc(CC(C(=O)OCC)C(=O)OCC)sc1NC(=O)c1nc2cnccc2s1 [Compound 278] | > 50 | > 25 | > 3
CCOC(=O)NC(=O)c1cc(C(=O)OCC)sc1NC(=O)c1nc2cnccc2s1 [Compound 279] | 25 to 50 (≈ 55.7 to 111 µM) | > 25 | > 3
Cc1cc(COC(=O)NC(=O)c2ccsc2NC(=O)c2nc3cnccc3s2)ccn1 [Compound 280] | 25 to 50 (≈ 55.1 to 110 µM) | > 25 | > 3
CC(C)COC(=O)NC(=O)c1ccsc1NC(=O)c1nc2ccccc2s1 [Compound 281] | 25 to 50 (≈ 62 to 124 µM) | > 25 | < 1
CC(C)COC(=O)NC(=O)c1ccsc1NC(=O)c1nc2cnccc2s1 [Compound 282] | 25 to 50 (≈ 61.8 to 124 µM) | > 25 | > 3
CC(C)COC(=O)NC(=O)c1ccsc1NC(=O)c1cnc2ccnn2c1 [Compound 283] | 25 to 50 (≈ 64.5 to 129 µM) | > 25 | 1 to 3 (≈ 2.58 to 7.74 µM)
O=C(NC(=O)c1ccsc1NC(=O)c1cnc2ccnn2c1)OCc1ccc(F)cc1 [Compound 284] | 25 to 50 (≈ 56.9 to 114 µM) | > 25 | > 3
O=C(NC(=O)c1ccsc1NC(=O)c1cnc2ccnn2c1)OCc1ccccc1F [Compound 285] | < 25 | > 25 | > 3
O=C(NC(=O)c1ccsc1NC(=O)c1nc2cnccc2s1)OCc1ccccc1F [Compound 287] | 25 to 50 (≈ 54.8 to 110 µM) | 5 to 25 (≈ 11 to 54.8 µM) | 1 to 3 (≈ 2.19 to 6.57 µM)
O=C(NC(=O)c1ccsc1NC(=O)c1nc2cccnc2s1)OCc1ccccc1C(F)(F)F [Compound 288] | < 25 | 5 to 25 (≈ 9.87 to 49.4 µM) | > 3
O=C(NC(=O)c1ccsc1NC(=O)c1cnc2ccnn2c1)OCc1ccccc1C(F)(F)F [Compound 289] | < 25 | > 25 | > 3
CCOC(=O)NC(=O)c1ccsc1NC(=O)c1cn2c(C)cccc2n1 [Compound 290] | > 50 | > 25 | > 3
O=C(Nc1sccc1C(=O)OCCN1CCOCC1)c1nc2ccccc2s1 [Compound 291] | > 50 | > 25 | > 3
CCOC(=O)NC(=O)c1ccsc1NC(=O)c1cn2c(n1)sc1ccccc12 [Compound 292] | > 50 | > 25 | > 3
C=CCOC(=O)NC(=O)c1ccsc1NC(=O)c1nc2ccccc2s1 [Compound 293] | < 25 | < 5 | < 1
O=C(NC(=O)c1ccsc1NC(=O)c1nc2ccccc2s1)OCc1ccccc1C(F)(F)F [Compound 294] | 25 to 50 (≈ 49.5 to 98.9 µM) | > 25 | > 3
O=C(NC(=O)c1ccsc1NC(=O)c1nc2cnccc2s1)OCc1ccccc1C(F)(F)F [Compound 295] | < 25 | 5 to 25 (≈ 9.87 to 49.4 µM) | > 3
CC(C)OC(=O)NC(=O)c1ccsc1NC(=O)c1c(F)c(F)c(F)c(F)c1F [Compound 296] | < 25 | 5 to 25 (≈ 11.8 to 59.2 µM) | > 3
C=CCOC(=O)NC(=O)c1ccsc1NC(=O)c1cnc2ccnn2c1 [Compound 297] | < 25 | < 5 | < 1
CC(C)OC(=O)NC(=O)c1ccsc1NC(=O)c1cnc2ccnn2c1 [Compound 298] | < 25 | < 5 | < 1
CCOC(=O)NC(=O)c1ccsc1NC(=O)c1cnc2c(-c3ccc(OC)cc3)cnn2c1 [Compound 299] | < 25 | > 25 | < 1

Structure (SMILES) | CC50 (in vitro) [µg/mL] | MIC (Mtb [1]) [µg/mL] | MIC (Mtb [2]) [µg/mL]
O=C(NC(=O)c1ccsc1NC(=O)c1cnc2ccnn2c1)OCc1ccccc1 [Compound 300] | 25 to 50 (≈ 59.3 to 119 µM) | > 25 | > 3
O=C(NC(=O)c1ccsc1NC(=O)c1nc2cnccc2s1)OCc1cccnc1 [Compound 301] | 25 to 50 (≈ 56.9 to 114 µM) | > 25 | > 3
C#CCOC(=O)NC(=O)c1ccsc1NC(=O)c1nc2ccccc2s1 [Compound 303] | < 25 | > 25 | < 1
CCC(OC(=O)NC(=O)c1ccsc1NC(=O)c1nc2cnccc2s1)c1ccccc1 (stereo not drawn) [Compound 305] | < 25 | > 25 | 1 to 3 (≈ 2.14 to 6.43 µM)
CCC(OC(=O)NC(=O)c1ccsc1NC(=O)c1cnc2ccnn2c1)c1ccccc1 (stereo not drawn) [Compound 306] | < 25 | > 25 | > 3
CCC(OC(=O)NC(=O)c1ccsc1NC(=O)c1nc2ccccc2s1)c1ccccc1 (stereo not drawn) [Compound 307] | < 25 | 5 to 25 (≈ 10.7 to 53.7 µM) | > 3
CCOC(=O)NC(=O)c1cc(CC(=O)O)sc1NC(=O)c1nc2cnccc2s1 [Compound 308] | < 25 | > 25 | > 3
CCOC(=O)NC(=O)c1ccsc1NC(=O)c1cn2c(n1)CCCC2 [Compound 309] | < 25 | 5 to 25 (≈ 13.8 to 69 µM) | 1 to 3 (≈ 2.76 to 8.28 µM)
CCOC(=O)NC(=O)c1ccsc1NC(=O)c1cc2ccccn2c1 [Compound 310] | > 50 | > 25 | > 3
CCOC(=O)NC(=O)c1ccsc1NC(=O)c1nc2cnc(N3CCOCC3)cc2s1 [Compound 311] | > 50 | > 25 | < 1
CCOC(=O)NC(=O)c1ccsc1NC(=O)Nc1nc2ccccc2s1 [Compound 312] | 25 to 50 (≈ 64 to 128 µM) | > 25 | > 3
COC(=O)NC(=O)c1ccsc1NC(=O)c1cnc2ccnn2c1 [Compound 313] | 25 to 50 (≈ 72.4 to 145 µM) | > 25 | > 3
COC(=O)NC(=O)c1ccsc1NC(=O)c1nc2cnccc2s1 [Compound 314] | 25 to 50 (≈ 69 to 138 µM) | > 25 | > 3
CCOC(=O)NC(=O)c1ccsc1NC(=O)c1cnc2c(N3CCOCC3)cnn2c1 [Compound 315] | 25 to 50 (≈ 56.2 to 112 µM) | > 25 | < 1
CC(C)OC(=O)NC(=O)c1cc(F)sc1NC(=O)c1cnc2ccnn2c1 [Compound 316] | 25 to 50 (≈ 63.9 to 128 µM) | > 25 | 1 to 3 (≈ 2.56 to 7.67 µM)
CC(C)OC(=O)NC(=O)c1ccsc1NC(=O)c1ccn2nccc2c1 [Compound 317] | < 25 | > 25 | < 1
CCOC(=O)NC(=O)c1cc(F)sc1NC(=O)c1nc2cccnc2s1 [Compound 318] | 25 to 50 (≈ 63.4 to 127 µM) | > 25 | < 1
O=C(NC(=O)c1ccsc1NC(=O)c1nc2ccccc2s1)OCCC(F)(F)F [Compound 319] | < 25 | > 25 | < 1
O=C(NC(=O)c1ccsc1NC(=O)c1nc2cnccc2s1)OCCC(F)(F)F [Compound 320] | > 50 | > 25 | < 1
O=C(NC(=O)c1ccsc1NC(=O)c1nc2ccccc2s1)OC1CCC1 [Compound 321] | > 50 | > 25 | < 1
O=C(NC(=O)c1ccsc1NC(=O)c1cnc2ccnn2c1)OCCC(F)(F)F [Compound 322] | < 25 | > 25 | > 3

Structure (SMILES) | CC50 (in vitro) [µg/mL] | MIC (Mtb [1]) [µg/mL] | MIC (Mtb [2]) [µg/mL]
CCC(CC)OC(=O)NC(=O)c1ccsc1NC(=O)c1cnc2ccnn2c1 [Compound 327] | < 25 | > 25 | 1 to 3 (≈ 2.49 to 7.47 µM)
CCC(CC)OC(=O)NC(=O)c1ccsc1NC(=O)c1nc2cnccc2s1 [Compound 328] | < 25 | > 25 | < 1
CCOC(=O)NC(=O)c1ccsc1NC(=O)c1cc2ccncc2s1 [Compound 329] | < 25 | > 25 | < 1
CC(C)OC(=O)NC(=O)c1ccsc1NC(=O)c1cc2c(F)cccc2s1 [Compound 330] | < 25 | 5 to 25 (≈ 12.3 to 61.5 µM) | < 1
CCOC(=O)NC(=O)c1ccsc1NC(=O)c1cc2c(F)cccc2s1 [Compound 331] | < 25 | 5 to 25 (≈ 12.7 to 63.7 µM) | < 1
CCOC(=O)NC(=O)c1ccsc1NC(=O)c1cc2cccnc2s1 [Compound 332] | > 50 | > 25 | < 1
CCOC(=O)NC(=O)c1ccsc1NC(=O)c1cc2ccc(Cl)cc2s1 [Compound 333] | 25 to 50 (≈ 61.1 to 122 µM) | 5 to 25 (≈ 12.2 to 61.1 µM) | < 1
CCOC(=O)NC(=O)c1ccsc1NC(=O)c1cc2cnccc2s1 [Compound 334] | > 50 | > 25 | < 1
CCOC(=O)NC(=O)c1ccsc1NC(=O)c1c(C)nc2ccc(C)cn12 [Compound 336] | 25 to 50 (≈ 64.7 to 129 µM) | > 25 | > 3
CCOC(=O)NC(=O)c1cc(F)sc1NC(=O)c1nc2cnccc2s1 [Compound 337] | 25 to 50 (≈ 63.4 to 127 µM) | > 25 | < 1
CCOC(=O)NC(=O)c1cc(F)sc1NC(=O)c1cn2ccccc2n1 [Compound 338] | 25 to 50 (≈ 66.4 to 133 µM) | > 25 | < 1
CC(C)OC(=O)NC(=O)c1cc(F)sc1NC(=O)c1cn2ccccc2n1 [Compound 339] | 25 to 50 (≈ 64 to 128 µM) | > 25 | < 1
CC(C)OC(=O)NC(=O)c1ccsc1NC(=O)c1cc2ncccn2n1 [Compound 340] | 25 to 50 (≈ 67 to 134 µM) | > 25 | < 1
CCOC(=O)NC(=O)c1cc(F)sc1NC(=O)c1cnc2ccnn2c1 [Compound 341] | 25 to 50 (≈ 66.3 to 133 µM) | > 25 | < 1
CC(C)OC(=O)NC(=O)c1cc(F)sc1NC(=O)c1nc2ccccc2s1 [Compound 342] | 25 to 50 (≈ 61.4 to 123 µM) | 5 to 25 (≈ 12.3 to 61.4 µM) | < 1
CCOC(=O)NC(=O)c1cc(F)sc1NC(=O)c1ccn2nccc2c1 [Compound 343] | < 25 | > 25 | < 1
CC(C)OC(=O)NC(=O)c1cc(F)sc1NC(=O)c1nc2cccnc2s1 [Compound 344] | 25 to 50 (≈ 61.2 to 122 µM) | > 25 | < 1
CC(C)OC(=O)NC(=O)c1cc(F)sc1NC(=O)c1cc2ncccn2n1 [Compound 345] | 25 to 50 (≈ 63.9 to 128 µM) | > 25 | < 1
CC(C)OC(=O)NC(=O)c1cc(F)sc1NC(=O)c1ccn2nccc2c1 [Compound 346] | < 25 | > 25 | 1 to 3 (≈ 2.56 to 7.68 µM)
